Tests used:
L6 muscle cells = test: [3H]-2-deoxyglucose (2DG) uptake in L6 muscle cells with and without added insulin (Study 1); type: cell-based
Protocol: L6 Muscle cells were obtained from the European Culture Collection (Porton Down) and were used at passages 7-11. Cells were maintained in standard tissue culture medium DMEM, and glucose uptake was assessed using [^3H]-2-deoxyglucose (2DG) with and without the presence of added insulin (10^−8 M) as has been previously described (Walker P S et al, Glucose transport activity in L6 muscle cells is regulated by the coordinate control of subcellular glucose transporter distribution, biosynthesis, and mRNA transcription, JBC, 1990;265(3), 1516-1523, and Kilp A et al, Stimulation of hexose transport by metformin in L6 muscle cells in culture, Endocrinology, 1992;130(5), 2535-2544).
Uptake of 2DG was expressed as the percentage change compared with control. Values are presented as mean±SEM of sets of 4 wells per experiment. Differences between sets of wells were evaluated by Student's t test, probability values p<0.05 were considered to be significant. […] In the presence of added insulin (10^−8 M), significant increases in 2DG uptake were observed following 24 hour incubation with the compound of formula I in which R1 and R2 are both methyl (sibutramine hydrochloride monohydrate) at 10^−8 M (from 149.9±4.3 to165.3±2.6), the compound of formula I in which R1 is methyl and R2 is H at 10^−7 M (from 147.3±3.0 to 160.7±4.5), and the compound of formula I in which R1 and R2 are both H, at 10^−7 M and 10^−6 M (from 149.1±3.9 to 161.8±3.3 and 165.2±3.6 respectively).

[1] = test system: ob/ob mice (Aston Strain); test: Chronic administration (10 mg/kg po) and withdrawal in obese ob/ob mice: plasma glucose, plasma insulin, body weight, food intake (Study 2); type: in vivo
Protocol: Studies were performed in obese ob/ob mice (Aston Strain) which are a model of severe insulin resistance and are also hyperglycaemic. The derivation and characteristics of this animal model have been previously described (Flatt P R, Bailey C J, Development of glucose intolerance and impaired plasma insulin response to glucose in obese hyperglycaemic (ob/ob) mice, Horm Metab Res 1981;13:556-560, and Bailey C J et al, Influence of genetic background and age on the expression of the obese hyperglycaemic syndrome in Aston ob/ob mice, Int J Obesity, 1982;6:11-21).
The ob/ob mice were individually housed in polypropylene cages at a temperature of 21±1° C. and 55% humidity. The mice had free access to a standard rat and mouse pelleted diet (Compound Rat and Mouse Diet, Special Diet Services, Witham, Essex) and tap water at all times. Animals were maintained on a reverse phase light-dark cycle. Lights were off between 09.00 h and 17.00 h in the acute experiment and between 10.00 h and 18.00 h in the chronic experiment. During this time the laboratory was illuminated by red lamps. Animals were acclimatised to these conditions for at least two weeks before experimentation.
All animals were given deionised water (at the start of the dark period) for 7 days. Body weight and food intake were measured daily. Blood samples were taken immediately before daily administration of vehicle (deionised water 10 ml/kg po) or compound of formula I in which R1 and R2 are both methyl (sibutramine hydrochloride monohydrate; 10 mg/kg po) on day 1 (baseline) and after 14 and 28 days of treatment (on day 15 and day 29 respectively). Blood samples were also taken 14 days following withdrawal of the sibutramine hydrochloride monohydrate (on day 43 of the study). Plasma glucose was determined by a glucose oxidase procedure (Analox GM7) and plasma insulin determined by radioimmunoassay (Amerlex, Amersham).

[2] = test system: ob/ob mice (Aston Strain); test: 6 weeks of treatment (5 mg/kg/day po) and 6 weeks of withdrawal in young ob/ob mice: body weight, plasma insulin, ip glucose tolerance test, insulin hypoglycaemia test (Study 3); type: in vivo
Protocol: Young ob/ob mice (Aston Strain) were randomised into 3 groups as follows: control, receiving placebo treatment (phosphate buffered saline 2.5 ml/kg/day po); sibutramine hydrochloride monohydrate-treated (5 mg/kg/day po); and pair-fed control, supplied with the same daily food intake as that consumed by the sibutramine hydrochloride monohydrate-treated group on the previous day. There was a 1 week run-in period followed by 6 weeks of treatment. Body weight and food intake were monitored every 1 to 2 days, and blood samples for plasma glucose and insulin were taken from the tail vein at weekly intervals in the non-fasted state at 11 a.m. An ip glucose tolerance test (D-glucose, 2 g/kg in 40% w/v solution in distilled water) and an insulin hypoglycaemia test (Actrapid, Novo-Nordisk, 2.5 u/kg ip) were conducted after 5 weeks of treatment. Food was withheld only for the duration of these tests (approx. 4 hours). The basal blood samples and the test procedures were undertaken 18 hours after the last treatment administration.
Treatment was stopped after 6 weeks, and the mice were monitored for the next 6 weeks. The pair-fed mice continued to be pair-fed with respect to the sibutramine hydrochloride monohydrate withdrawal group. A second insulin hypoglycaemia test was conducted 4 weeks after treatment was stopped. Plasma glucose was determined by an automated glucose oxidase procedure (Beckman) and plasma insulin determined by radioimmunnoassay (Amerlex, Amersham).

[3] = added insulin 10^−8 M, 24 hour incubation, compound 10^−7 M, insulin alone 147.3±3.0 (R1 methyl, R2 H) or 149.1±3.9 (both H), mean±SEM
[4] = compound group, day 1 of study, prior to treatment (baseline), mean ± SEM
[5] = 6 week withdrawal period after 5 mg/kg/day po, vs vehicle treated group, for almost all of the period

CNC(CC(C)C)C1(c2ccc(Cl)cc2)CCC1 (stereo not drawn) [N-{1-[1-(4-chlorophenyl)cyclobutyl]-3-methylbutyl}-N-methylamine]
Uptake of 2DG, percentage change compared with control (L6 muscle cells; [3]): 160.7±4.5%

CC(C)CC(N)C1(c2ccc(Cl)cc2)CCC1 (stereo not drawn) [1-[1-(4-chlorophenyl)cyclobutyl]-3-methylbutylamine]
Uptake of 2DG, percentage change compared with control (L6 muscle cells; absence of added insulin, 24 hours incubation, compound 10^−6 M, control 100±2.1, mean±SEM): 134±7.3% | Uptake of 2DG, percentage change compared with control (L6 muscle cells; absence of added insulin, 24 hours incubation, compound 10^−7 M, control 100±2.1, mean±SEM): 123.9±4.3% | Uptake of 2DG, percentage change compared with control (L6 muscle cells; absence of added insulin, 24 hours incubation, compound 10^−8 M, control 100±2.1, mean±SEM): 116.9±3.8% | Uptake of 2DG, percentage change compared with control (L6 muscle cells; added insulin 10^−8 M, 24 hour incubation, compound 10^−6 M, insulin alone 149.1±3.9, mean±SEM): 165.2±3.6% | Uptake of 2DG, percentage change compared with control (L6 muscle cells; [3]): 161.8±3.3%

CC(C)CC(N(C)C)C1(c2ccc(Cl)cc2)CCC1.Cl.O (stereo not drawn) [sibutramine hydrochloride monohydrate, N,N-dimethyl-1-[1-(4-chlorophenyl)cyclobutyl]-3-methylbutylamine hydrochloride monohydrate]
Uptake of 2DG, percentage change compared with control (L6 muscle cells; added insulin 10^−8 M, 24 hour incubation, compound 10^−8 M, insulin alone 149.9±4.3, mean±SEM): 165.3±2.6% | Plasma glucose (in words) ([1]; 10 mg/kg po daily, after 14 and 28 days of treatment, significant difference from control at day 28 (P<0.01)): fell | Plasma glucose ([1]; 10 mg/kg po daily, day 15 of study (14 days of treatment), vehicle 21.7 ± 0.9, mean ± SEM): 19.0 ± 0.6 mmol/L | Plasma insulin ([1]; 10 mg/kg po daily, day 15 of study (14 days of treatment), vehicle 49.7 ± 3.5, mean ± SEM): 45.1 ± 2.6 ng/mL | Plasma glucose ([1]; 10 mg/kg po daily, day 29 of study (28 days of treatment), vehicle 26.0 ± 1.4, **P < 0.01 vs vehicle, mean ± SEM): 15.8 ± 0.7** mmol/l | Plasma insulin ([1]; 10 mg/kg po daily, day 29 of study (28 days of treatment), vehicle 46.2 ± 4.5, mean ± SEM): 35.1 ± 2.7 ng/mL | Plasma insulin (in words) ([1]; 10 mg/kg po daily, tended to fall on treatment and increased on withdrawal): No significant changes | Body weight (in words) ([1]; 10 mg/kg po daily, vs vehicle): No significant changes | Food intake (in words) ([1]; 10 mg/kg po daily, vs vehicle): No significant changes | Plasma glucose (in words) ([1]; after 14 days of drug withdrawal, rose to control values): rose significantly | Plasma glucose [1, 4]: 24.3 ± 0.6 mmol/L | Plasma insulin [1, 4]: 92.0 ± 4.5 ng/mL | Plasma glucose ([1]; day 43 of study, 14 days after drug withdrawal, vehicle 22.9 ± 1.7, mean ± SEM): 23.6 ± 1.2 mmol/L | Plasma insulin ([1]; day 43 of study, 14 days after drug withdrawal, vehicle 40.6 ± 8.6, mean ± SEM): 77.1 ± 11.3 ng/mL | Plasma insulin in ip glucose tolerance test (in words) ([2]; 5 mg/kg/day po, after 5 weeks of treatment, D-glucose 2 g/kg ip, vs vehicle, P<0.05, FIG. 1): significant reductions | Plasma glucose in ip glucose tolerance test (in words) ([2]; 5 mg/kg/day po, after 5 weeks of treatment, D-glucose 2 g/kg ip, vs vehicle, P<0.05, FIG. 2): significant reductions | Insulin hypoglycaemia test (in words) ([2]; 5 mg/kg/day po, at 5 weeks, insulin 2.5 u/kg ip, vs vehicle, P<0.05, FIG. 3): Significant improvements | Body weight (in words) ([2]; 5 mg/kg/day po, during 6 weeks of treatment, compared to vehicle): significant reduction | Plasma insulin (in words) ([2]; 5 mg/kg/day po, during 6 weeks of treatment, non-fasted, compared to vehicle): significant reduction | Body weight (in words) [2, 5]: remained significantly lower | Plasma insulin (in words) [2, 5]: remained significantly lower

— patent publication US6617360B1, “Medical treatment” (Knoll Aktiengesellschaft, priority 1996, dated 2003)
